≈ marks a conversion by molar mass, not a printed value. Each block holds one molecule with its values, some of them ahead of it.
Experiments:
Pseudomonas aeruginosa [1] = test: Antibacterial activity against PiuA/FptA receptor-deficient Pseudomonas aeruginosa PAO1 in Muller-Hinton broth medium by broth microdilution method; assay type: functional
[2] = Inhibition of PBP1b in Pseudomonas aeruginosa ATCC 27853 after 20 mins by fluorescence assay
Klebsiella pneumoniae [3] = test: Antibacterial activity against Klebsiella pneumoniae expressing ESBL by broth microdilution method; assay type: functional
Pseudomonas aeruginosa [4] = test: Antibacterial activity against Pseudomonas aeruginosa 1042-06 by broth microdilution method; assay type: functional
Klebsiella pneumoniae [5] = test: Antibacterial activity against Klebsiella pneumoniae 1487-07 by broth microdilution method; assay type: functional
Pseudomonas aeruginosa [6] = test: Antibacterial activity against FpvA receptor-deficient Pseudomonas aeruginosa PAO1 in iron-chelated Muller-Hinton broth medium by broth microdilution method; assay type: functional
Pseudomonas aeruginosa [7] = test: Antibacterial activity against Pseudomonas aeruginosa expressing metallo-beta-lactamase by broth microdilution method; assay type: functional
Klebsiella pneumoniae [8] = test: Antibacterial activity against Klebsiella pneumoniae 1000-02 by broth microdilution method; assay type: functional
Pseudomonas aeruginosa [9] = test: Antibacterial activity against Pseudomonas aeruginosa PAO1 in Muller-Hinton broth medium by broth microdilution method; assay type: functional
Pseudomonas aeruginosa [10] = test: Antibacterial activity against PiuA/FptA receptor-deficient Pseudomonas aeruginosa PAO1 in iron-chelated Muller-Hinton broth medium by broth microdilution method; assay type: functional
Pseudomonas aeruginosa [11] = test: Antibacterial activity against PiuA/FpvA receptor-deficient Pseudomonas aeruginosa PAO1 in Muller-Hinton broth medium by broth microdilution method; assay type: functional
Pseudomonas aeruginosa [12] = test: Antibacterial activity against PiuA receptor-deficient Pseudomonas aeruginosa PAO1 in iron-chelated Muller-Hinton broth medium by broth microdilution method; assay type: functional
Escherichia coli [13] = test: Antibacterial activity against Escherichia coli expressing CTX-M by broth microdilution method; assay type: functional
Klebsiella pneumoniae [14] = test: Antibacterial activity against Klebsiella pneumoniae expressing KPC by broth microdilution method; assay type: functional
Pseudomonas aeruginosa [15] = test: microbe, parasite or virus in culture; conditions: 1091-05
Description: Antibacterial activity against Pseudomonas aeruginosa 1091-05 by broth microdilution method

Pseudomonas aeruginosa [16] = test: Ratio of MIC for PiuA/PirA receptor-deficient Pseudomonas aeruginosa PAO1 to MIC for Pseudomonas aeruginosa PAO1 in iron-chelated Muller-Hinton broth medium by broth microdilution method; assay type: functional
Pseudomonas aeruginosa [17] = test: Antibacterial activity against PiuA/PirA receptor-deficient Pseudomonas aeruginosa PAO1 in Muller-Hinton broth medium by broth microdilution method; assay type: functional
[18] = Fraction unbound in human plasma; assay type: ADME, cell-free
Pseudomonas aeruginosa [19] = test: Antibacterial activity against PiuA/PirA receptor-deficient Pseudomonas aeruginosa PAO1 in iron-chelated Muller-Hinton broth medium by broth microdilution method; assay type: functional
[20] = Inhibition of PBP2 in Pseudomonas aeruginosa ATCC 27853 after 20 mins by fluorescence assay
Pseudomonas aeruginosa [21] = test: Antibacterial activity against PiuA/FpvA receptor-deficient Pseudomonas aeruginosa PAO1 in iron-chelated Muller-Hinton broth medium by broth microdilution method; assay type: functional
[22] = Fraction unbound in rat plasma; assay type: ADME, cell-free
Acinetobacter sp. = test: Antibacterial activity against Acinetobacter spp. by broth microdilution method; assay type: functional
Pseudomonas aeruginosa [23] = test: Antibacterial activity against PiuA receptor-deficient Pseudomonas aeruginosa PAO1 in Muller-Hinton broth medium by broth microdilution method; assay type: functional
Pseudomonas aeruginosa [24] = test: Ratio of MIC for PiuA receptor-deficient Pseudomonas aeruginosa PAO1 to MIC for Pseudomonas aeruginosa PAO1 in Muller-Hinton broth medium by broth microdilution method; assay type: functional
Pseudomonas aeruginosa [25] = test: Antibacterial activity against FptA receptor-deficient Pseudomonas aeruginosa PAO1 in Muller-Hinton broth medium by broth microdilution method; assay type: functional
Acinetobacter baumannii = test: Antibacterial activity against Acinetobacter baumannii AB-3167 by broth microdilution method; assay type: functional
[26] = Inhibition of PBP1a in Pseudomonas aeruginosa ATCC 27853 after 20 mins by fluorescence assay
[27] = Fraction unbound in mouse plasma; assay type: ADME, cell-free
[28] = Plasma clearance in Wistar Han rat at 1 mg/kg, iv by LC/MS/MS analysis; assay type: ADME, organism-based; set-up: dose 1 mg/kg, route intravenous
[29] = Inhibition of PBP3 in Pseudomonas aeruginosa ATCC 27853 after 20 mins by fluorescence assay
Rattus norvegicus = test: Intrinsic clearance in Wistar Han rat at 1 mg/kg, iv by LC/MS/MS analysis; assay type: ADME, organism-based; set-up: dose 1 mg/kg, route intravenous; conditions: in vivo
Pseudomonas aeruginosa [30] = test: Ratio of MIC for PiuA/PirA receptor-deficient Pseudomonas aeruginosa PAO1 to MIC for Pseudomonas aeruginosa PAO1 in Muller-Hinton broth medium by broth microdilution method; assay type: functional
Pseudomonas aeruginosa [31] = test: Antibacterial activity against PirA receptor-deficient Pseudomonas aeruginosa PAO1 in iron-chelated Muller-Hinton broth medium by broth microdilution method; assay type: functional
Escherichia coli [32] = test: Antibacterial activity against Escherichia coli expressing ESBL by broth microdilution method; assay type: functional
Klebsiella pneumoniae [33] = test: Antibacterial activity against Klebsiella pneumoniae expressing defined beta-lactamase by broth microdilution method; assay type: functional
Pseudomonas aeruginosa [34] = test: Antibacterial activity against Pseudomonas aeruginosa from cystic fibrosis patients by broth microdilution method; assay type: functional
Pseudomonas aeruginosa [35] = test: Antibacterial activity against FpvA receptor-deficient Pseudomonas aeruginosa PAO1 in Muller-Hinton broth medium by broth microdilution method; assay type: functional
Escherichia coli [36] = test: Antibacterial activity against Escherichia coli expressing defined beta-lactamase by broth microdilution method; assay type: functional
Pseudomonas aeruginosa [37] = test: Antibacterial activity against FptA receptor-deficient Pseudomonas aeruginosa PAO1 in iron-chelated Muller-Hinton broth medium by broth microdilution method; assay type: functional
Pseudomonas aeruginosa [38] = test: Antibacterial activity against PirA receptor-deficient Pseudomonas aeruginosa PAO1 in Muller-Hinton broth medium by broth microdilution method; assay type: functional
Pseudomonas aeruginosa [39] = test: Antibacterial activity against Pseudomonas aeruginosa PAO1 in iron-chelated Muller-Hinton broth medium by broth microdilution method; assay type: functional

SMILES: CC(C)(O/N=C(\C(=O)N[C@@H]1C(=O)N(S(=O)(=O)O)[C@@H]1CNC(=O)c1cc(=O)c(O)cn1-c1ccccc1)c1csc(N)n1)C(=O)O
IC50 [2]: 7400 nM | MIC (Pseudomonas aeruginosa [4]): 32 µg/mL (≈ 48.2 µM) | MIC (Klebsiella pneumoniae [5]): 16 µg/mL (≈ 24.1 µM) | MIC (Klebsiella pneumoniae [8]): 1 µg/mL (≈ 1.51 µM) | MIC (Pseudomonas aeruginosa [15]): 32 µg/mL (≈ 48.2 µM) | IC50 [20]: > 300000 nM | MIC (Acinetobacter baumannii): 32 µg/mL (≈ 48.2 µM) | IC50 [26]: 580 nM | IC50 [29]: 140 nM

SMILES: CC(C)(O/N=C(\C(=O)N[C@@H]1C(=O)N(S(=O)(=O)O)[C@@H]1CNC(=O)NCc1cc(=O)c(O)cn1O)c1csc(N)n1)C(=O)NO
IC50 [2]: 11100 nM | MIC (Pseudomonas aeruginosa [4]): > 64 µg/mL | MIC (Klebsiella pneumoniae [5]): 16 µg/mL (≈ 24.7 µM) | MIC (Klebsiella pneumoniae [8]): 8 µg/mL (≈ 12.4 µM) | MIC (Pseudomonas aeruginosa [15]): 1 µg/mL (≈ 1.54 µM) | IC50 [20]: > 300000 nM | MIC (Acinetobacter baumannii): 1 µg/mL (≈ 1.54 µM) | IC50 [26]: 3020 nM | IC50 [29]: 270 nM

Continued by falling MIC (Pseudomonas aeruginosa [4]), values first:

MIC (Pseudomonas aeruginosa [1]): 8 µg/mL (≈ 12.6 µM) | IC50 [2]: 1670 nM | MIC90 (Klebsiella pneumoniae [3]): 1 µg/mL (≈ 1.58 µM) | MIC (Pseudomonas aeruginosa [4]): 2 µg/mL (≈ 3.16 µM) | MIC (Klebsiella pneumoniae [5]): 2 µg/mL (≈ 3.16 µM) | MIC (Pseudomonas aeruginosa [6]): 0.06 µg/mL (≈ 0.0948 µM) | MIC50 (Pseudomonas aeruginosa [7]): 0.25 µg/mL (≈ 0.395 µM) | MIC90 (Pseudomonas aeruginosa [7]): 1 µg/mL (≈ 1.58 µM) | MIC (Klebsiella pneumoniae [8]): 0.25 µg/mL (≈ 0.395 µM) | MIC (Pseudomonas aeruginosa [9]): 0.25 µg/mL (≈ 0.395 µM) | MIC (Pseudomonas aeruginosa [10]): 0.5 µg/mL (≈ 0.79 µM) | MIC (Pseudomonas aeruginosa [11]): 8 µg/mL (≈ 12.6 µM) | MIC (Pseudomonas aeruginosa [12]): 0.5 µg/mL (≈ 0.79 µM) | MIC50 (Escherichia coli [13]): 0.5 µg/mL (≈ 0.79 µM) | MIC90 (Escherichia coli [13]): 1 µg/mL (≈ 1.58 µM) | MIC50 (Klebsiella pneumoniae [14]): 4 µg/mL (≈ 6.32 µM) | MIC90 (Klebsiella pneumoniae [14]): 16 µg/mL (≈ 25.3 µM) | MIC (Pseudomonas aeruginosa [15]): 0.25 µg/mL (≈ 0.395 µM) | MIC (Pseudomonas aeruginosa [17]): 32 µg/mL (≈ 50.6 µM) | fraction unbound [18]: 1 | MIC (Pseudomonas aeruginosa [19]): 32 µg/mL (≈ 50.6 µM) | IC50 [20]: > 300000 nM | MIC (Pseudomonas aeruginosa [21]): 0.25 µg/mL (≈ 0.395 µM) | fraction unbound [22]: 0.91 | MIC50 (Acinetobacter sp.): 8 µg/mL (≈ 12.6 µM) | MIC90 (Acinetobacter sp.): > 64 µg/mL | MIC (Pseudomonas aeruginosa [23]): 8 µg/mL (≈ 12.6 µM) | MIC (Pseudomonas aeruginosa [25]): 0.25 µg/mL (≈ 0.395 µM) | MIC (Acinetobacter baumannii): 0.25 µg/mL (≈ 0.395 µM) | IC50 [26]: 620 nM | fraction unbound [27]: 0.91 | clearance [28]: 8.4 mL/min/kg | IC50 [29]: 54 nM | CL (Rattus norvegicus): 10 mL/min/kg | MIC (Pseudomonas aeruginosa [31]): 0.25 µg/mL (≈ 0.395 µM) | MIC50 (Escherichia coli [32]): 0.25 µg/mL (≈ 0.395 µM) | MIC90 (Escherichia coli [32]): 2 µg/mL (≈ 3.16 µM) | MIC50 (Klebsiella pneumoniae [33]): 0.5 µg/mL (≈ 0.79 µM) | MIC90 (Klebsiella pneumoniae [33]): 16 µg/mL (≈ 25.3 µM) | MIC50 (Pseudomonas aeruginosa [34]): 0.25 µg/mL (≈ 0.395 µM) | MIC90 (Pseudomonas aeruginosa [34]): 4 µg/mL (≈ 6.32 µM) | MIC (Pseudomonas aeruginosa [35]): 0.25 µg/mL (≈ 0.395 µM) | MIC50 (Escherichia coli [36]): 0.125 µg/mL (≈ 0.198 µM) | MIC90 (Escherichia coli [36]): 1 µg/mL (≈ 1.58 µM) | MIC (Pseudomonas aeruginosa [37]): 0.25 µg/mL (≈ 0.395 µM) | MIC (Pseudomonas aeruginosa [38]): 0.25 µg/mL (≈ 0.395 µM)
SMILES: CC(C)(O/N=C(\C(=O)N[C@@H]1C(=O)N(S(=O)(=O)O)[C@@H]1CNC(=O)NCc1cc(=O)c(O)cn1O)c1csc(N)n1)C(=O)O
Ratio (Pseudomonas aeruginosa [16]): >=64 | Ratio (Pseudomonas aeruginosa [24]): 32 | Ratio (Pseudomonas aeruginosa [30]): >=64

MIC (Pseudomonas aeruginosa [4]): 1 µg/mL (≈ 1.49 µM) | MIC (Pseudomonas aeruginosa [15]): 0.25 µg/mL (≈ 0.372 µM) | fraction unbound [18]: 0.5 | fraction unbound [22]: 0.6 | MIC (Acinetobacter baumannii): 0.25 µg/mL (≈ 0.372 µM) | fraction unbound [27]: 0.8 | clearance [28]: 31.3 mL/min/kg | CL (Rattus norvegicus): 94 mL/min/kg
SMILES: CC(C)(O/N=C(\C(=O)N[C@@H]1C(=O)N(S(=O)(=O)O)[C@@H]1Cn1cc(COCc2cc(=O)c(O)cn2O)nn1)c1csc(N)n1)C(=O)O

MIC (Pseudomonas aeruginosa [1]): 8 µg/mL | MIC (Pseudomonas aeruginosa [4]): 0.5 µg/mL | MIC (Klebsiella pneumoniae [5]): 0.25 µg/mL | MIC (Pseudomonas aeruginosa [6]): 0.5 µg/mL | MIC (Klebsiella pneumoniae [8]): < 0.06 µg/mL | MIC (Pseudomonas aeruginosa [9]): 0.5 µg/mL | MIC (Pseudomonas aeruginosa [10]): 0.5 µg/mL | MIC (Pseudomonas aeruginosa [11]): 16 µg/mL | MIC (Pseudomonas aeruginosa [39]): 0.5 µg/mL | MIC (Pseudomonas aeruginosa [12]): 0.5 µg/mL | MIC (Pseudomonas aeruginosa [15]): 0.5 µg/mL | MIC (Pseudomonas aeruginosa [17]): 64 µg/mL | MIC (Pseudomonas aeruginosa [19]): 64 µg/mL | MIC (Pseudomonas aeruginosa [21]): 1 µg/mL | MIC (Pseudomonas aeruginosa [23]): 8 µg/mL | MIC (Pseudomonas aeruginosa [25]): 0.5 µg/mL | MIC (Acinetobacter baumannii): 0.5 µg/mL | MIC (Pseudomonas aeruginosa [31]): 0.5 µg/mL | MIC (Pseudomonas aeruginosa [35]): 1 µg/mL | MIC (Pseudomonas aeruginosa [37]): 0.5 µg/mL | MIC (Pseudomonas aeruginosa [38]): 0.5 µg/mL
SMILES: CC(C)(O/N=C(\C(=O)N[C@@H]1C(=O)N(S(=O)(=O)[O-])[C@@H]1CNC(=O)c1cc(=O)c(O)cn1O)c1csc(N)n1)C(=O)[O-].[Na+].[Na+]
Ratio (Pseudomonas aeruginosa [16]): >=64 | Ratio (Pseudomonas aeruginosa [24]): 16 | Ratio (Pseudomonas aeruginosa [30]): >=64
